Measured values taken from article PMC7351765, “Gastrin releasing peptide receptor targeted nano-graphene oxide for near-infrared fluorescence imaging of oral squamous cell carcinoma” (Scientific Reports, 2020).

What was measured:
GRPR = target: T1, GRPR (Homo sapiens, UniProt P30550); experiment: Immunofluorescence assay of paraffin tissue sections with the fluorescent probe; settings: 4-µm paraffin sections, probe 10 min in the dark, ImageJ quantitation
T1 construct: The paraffin-embedded samples, obtained from the Department of Pathology, Stomatology Hospital of Shanxi Medical University, were cut into 4-µm slices; from tissue; host or cells: paraffin-embedded OSCC tissue and normal oral mucosa sections from patients
Description: We analyzed the expression levels of GRPR in primary OSCC sections and the normal tissue sections using AF750-6Ahx-Sta-BBN immunofluorescence assay.
The paraffin-embedded samples, obtained from the Department of Pathology, Stomatology Hospital of Shanxi Medical University, were cut into 4-µm slices. Then tissue blocks were treated with xylene and dehydrated using a graded ethanol series. Following that, the sections were heated for antigen retrieval and incubated in 3% H2O2 to block endogenous peroxidase. The BSA was added and incubated at 37 °C for 30 min. After that, BSA was removed and AF750-6Ahx-Sta-BBN was added and incubated for 10 min in the dark. The slides were observed and imaged using an inverted Olympus fluorescence microscope (Olympus Corp., Osaka, Japan). Quantitative analysis of GRPR expression was performed using ImageJ (https://imagej.nih.gov/ij/). Each patient received written informed consent before the study.

HSC-3 cells [1] = experiment: Time-dependent cell uptake, flow cytometry; format: cell-based, human; settings: HSC-3, 2 × 10^6 cells, 37 °C, performed three times
Description: (§1) The time-dependent experiment was carried out on HSC-3 cells for both AF750-6Ahx-Sta-BBN and NGO-BBN-AF750. […] With increase of incubation time, cells uptake increased, and at the first 15 min, we observed a rapid binding of up to 80%. […] The cell uptake was 83 ± 15% and 89 ± 29% (AF750-6Ahx-Sta-BBN) and 85 ± 15% and 96 ± 20% (NGO-BBN-AF750) at 30 min and 60 min, respectively. We further conducted confocal laser scanning microscope experiments to evaluate the internalization of AF750-6Ahx-Sta-BBN and NGO-BBN-AF750 into HSC-3 cells and HOK cells. Blue fluorescence (Excitation, 460 nm) was used to represent the nuclei of HSC-3 cells. Red (Excitation, 750 nm) channel represents the fluorescence signal of AF750. […] While AF750-6Ahx-Sta-BBN is a GRPR antagonist to the HSC-3, NGO-BBN-AF750 may be internalized into HSC-3 cells via the combined interaction of BBN binding and the endocytosis of the nanoparticle. Evaluating nanotoxicity of NGO-BBN-AF750 was a part of our experimental design.
HSC-3 cells were seeded into 3.5 cm^2 culture dish at a density of 2 × 10^6, next cells were incubated with AF750-6Ahx-Sta-BBN or NGO-AF750-BBN at 37 °C for 15, 30, 60 and 120 min, respectively. Then, cells were washed three times with chilled PBS and harvested for flow cytometry measurements. Experiments were performed three times. For internalization studies, HSC-3 cells were cultured in 24-well plates at 2 × 10^4 cells/well and grown for 24 h. Next, the original medium was replaced with fresh medium containing 50 nM AF750-6Ahx-Sta-BBN or NGO-BBN-AF750. The cells were then incubated for 4 h. After washing the cells three times with PBS, 2.5% paraformaldehyde was used to fix the cells. Then DAPI (Excitation, […]) was used to stain the nuclei of the cells. Finally, the cells were visualized under OLYMPUS FV1200 confocal laser scanning microscope (Olympus, Osaka, Japan). In addition, HOK cells were used as a GRPR-negative control group and cultured with NGO-BBN-AF750, the above experiment was performed and compared to the HSC-3 cells.

HSC-3 cells [2] = experiment: Internalization study, confocal laser scanning microscopy; format: cell-based, human; settings: HSC-3, 50 nM probe, 4 h, DAPI nuclear stain
Description: as §1
HSC-3 cells were seeded into 3.5 cm^2 culture dish at a density of 2 × 10^6, next cells were incubated with AF750-6Ahx-Sta-BBN or NGO-AF750-BBN at 37 °C for 15, 30, 60 and 120 min, respectively. Then, cells were washed three times with chilled PBS and harvested for flow cytometry measurements. Experiments were performed three times. […]

GRPR on HSC-3 cells = target: T2, GRPR on HSC-3 cells (Homo sapiens, UniProt P30550); experiment: Specificity binding (blocking) assay, NIR fluorescence microscopy; format: cell-based; settings: 37 °C
T2 construct: endogenous in cells; host or cells: HSC-3 (human tongue squamous cell carcinoma)
Description: The binding specificities of AF750-6Ahx-Sta-BBN were determined with HSC-3 cells of human oral tongue squamous cell carcinoma using previously described methods. […] To determine the binding affinity of AF750-6Ahx-Sta-BBN in HSC-3, cells were first incubated with BBN (1–14), then added increasing concentrations of AF750-6Ahx-Sta-BBN (0.005–50 nM). Cells were washed after 50 min incubation and examined by flow cytometry. The binding affinity to GRPR is shown in Fig. 7, and plotted as the fluorescence intensity as function of the AF750-6Ahx-Sta-BBN concentration (Fig. 7B).
Figure 6 The specificity binding assay of AF750-6Ahx-Sta-BBN to GRPR on HSC-3 cells at 37 °C. The scale bar is 30 μm.

[3] = test system: GRPR overexpressed in a prostate cancer PC-3 cell line; settings: cited from earlier work
Source text: AF750-6Ahx-Sta-BBN is a GRPR antagonist peptide analog.

T2 sequence (P30550 whole entry): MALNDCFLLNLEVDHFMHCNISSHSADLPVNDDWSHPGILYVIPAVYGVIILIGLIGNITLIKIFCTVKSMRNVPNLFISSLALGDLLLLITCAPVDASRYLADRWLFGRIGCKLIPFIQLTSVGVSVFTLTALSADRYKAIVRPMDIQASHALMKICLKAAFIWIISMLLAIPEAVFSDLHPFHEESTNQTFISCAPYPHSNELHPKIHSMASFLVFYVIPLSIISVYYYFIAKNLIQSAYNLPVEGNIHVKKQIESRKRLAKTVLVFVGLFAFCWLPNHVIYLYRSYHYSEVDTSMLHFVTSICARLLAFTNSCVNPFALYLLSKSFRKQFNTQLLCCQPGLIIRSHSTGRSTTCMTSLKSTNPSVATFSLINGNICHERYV
T1 sequence (P30550 whole entry): as above

Substance: -DPhe-Gln-Trp-Ala-Val-Gly-His-Sta-Leu-NH2 [AF750-6Ahx-Sta-BBN, GRPR-specific Alexa Fluor 750 labeled BBN antagonist peptide; Sta-BBN conjugated to AF750 via 6-aminohexanoic acid linker]
- fluorescence intensity increase, OSCC tissue versus normal oral mucous tissue (GRPR): 2.5 fold
- binding in the first 15 min (HSC-3 cells [1]; 15 min): up to 80%
- cell uptake at 30 min (HSC-3 cells [1]; 30 min): 83 ± 15%
- cell uptake at 60 min (HSC-3 cells [1]; 60 min): 89 ± 29%
- cellular localisation / internalization (HSC-3 cells [2]): observed on the membrane of HSC-3
- NIR fluorescence of cells, blocking group (GRPR on HSC-3 cells; HSC-3 cells incubated with excessive BBN (1–14) for 10 min before the probe): no fluorescence signal
- NIR fluorescence of cells, uptake group (GRPR on HSC-3 cells; HSC-3 cells incubated with probe, no blocking): strong NIR fluorescence signals
- binding affinity and specificity to GRPR [3]: high binding affinity and specificity
